Tests used:
[1] = target: Glucagon-like peptide 1 receptor (Homo sapiens, UniProt P43220); experiment: Agonist activity at N-terminal hemagglutinin-tagged human GLP-1R expressed in CHO cells co-transfected with pcDNA3.0 assessed as increase in intracellular cAMP accumulation incubated for 30 mins by microplate reader analysis; format: functional, cell-based
[2] = target: hERG (KCNH2) (Homo sapiens, UniProt Q12809); experiment: Inhibition of hERG at 10 uM at -80 mV holding potential by whole-cell patch clamp analysis relative to control; format: toxicity
[3] = Half life in Sprague-Dawley rat at 5 mg/kg, po measured up to 24 hrs by LC-MS/MS analysis; format: ADME, organism-based; conditions: in vivo
[4] = AUC (0 to infinity) in Sprague-Dawley rat at 5 mg/kg, po measured up to 24 hrs by LC-MS/MS analysis; format: ADME, organism-based; conditions: in vivo
[5] = Observed apparent oral clearance in Sprague-Dawley rat at 5 mg/kg, po measured up to 24 hrs by LC-MS/MS analysis; format: ADME, organism-based; conditions: in vivo
[6] = in vivo; conditions: Sprague-Dawley, rat, po, 5 mg/kg
[7] = Cmax in Sprague-Dawley rat at 5 mg/kg, po measured up to 24 hrs by LC-MS/MS analysis; format: ADME, organism-based; conditions: in vivo
[8] = Fraction of the dose absorbed in Sprague-Dawley rat at 5 mg/kg, po measured up to 24 hrs by LC-MS/MS analysis; format: ADME, organism-based; conditions: in vivo, read-out: Fabs

Chain of Glucagon-like peptide 1 receptor (P43220 whole entry): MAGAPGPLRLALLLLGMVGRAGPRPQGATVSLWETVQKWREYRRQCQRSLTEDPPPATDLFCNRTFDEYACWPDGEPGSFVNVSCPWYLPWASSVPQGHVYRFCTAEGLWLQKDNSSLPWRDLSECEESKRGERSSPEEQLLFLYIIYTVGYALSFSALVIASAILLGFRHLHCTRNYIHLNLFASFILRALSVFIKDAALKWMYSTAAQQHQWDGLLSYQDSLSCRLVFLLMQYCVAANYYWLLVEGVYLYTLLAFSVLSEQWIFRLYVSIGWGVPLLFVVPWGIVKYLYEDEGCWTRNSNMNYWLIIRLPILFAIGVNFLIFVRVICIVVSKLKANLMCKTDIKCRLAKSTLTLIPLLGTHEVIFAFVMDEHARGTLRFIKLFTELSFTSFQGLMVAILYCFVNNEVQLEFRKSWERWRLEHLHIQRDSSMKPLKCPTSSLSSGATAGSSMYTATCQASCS
Chain of hERG (KCNH2) (Q12809 whole entry): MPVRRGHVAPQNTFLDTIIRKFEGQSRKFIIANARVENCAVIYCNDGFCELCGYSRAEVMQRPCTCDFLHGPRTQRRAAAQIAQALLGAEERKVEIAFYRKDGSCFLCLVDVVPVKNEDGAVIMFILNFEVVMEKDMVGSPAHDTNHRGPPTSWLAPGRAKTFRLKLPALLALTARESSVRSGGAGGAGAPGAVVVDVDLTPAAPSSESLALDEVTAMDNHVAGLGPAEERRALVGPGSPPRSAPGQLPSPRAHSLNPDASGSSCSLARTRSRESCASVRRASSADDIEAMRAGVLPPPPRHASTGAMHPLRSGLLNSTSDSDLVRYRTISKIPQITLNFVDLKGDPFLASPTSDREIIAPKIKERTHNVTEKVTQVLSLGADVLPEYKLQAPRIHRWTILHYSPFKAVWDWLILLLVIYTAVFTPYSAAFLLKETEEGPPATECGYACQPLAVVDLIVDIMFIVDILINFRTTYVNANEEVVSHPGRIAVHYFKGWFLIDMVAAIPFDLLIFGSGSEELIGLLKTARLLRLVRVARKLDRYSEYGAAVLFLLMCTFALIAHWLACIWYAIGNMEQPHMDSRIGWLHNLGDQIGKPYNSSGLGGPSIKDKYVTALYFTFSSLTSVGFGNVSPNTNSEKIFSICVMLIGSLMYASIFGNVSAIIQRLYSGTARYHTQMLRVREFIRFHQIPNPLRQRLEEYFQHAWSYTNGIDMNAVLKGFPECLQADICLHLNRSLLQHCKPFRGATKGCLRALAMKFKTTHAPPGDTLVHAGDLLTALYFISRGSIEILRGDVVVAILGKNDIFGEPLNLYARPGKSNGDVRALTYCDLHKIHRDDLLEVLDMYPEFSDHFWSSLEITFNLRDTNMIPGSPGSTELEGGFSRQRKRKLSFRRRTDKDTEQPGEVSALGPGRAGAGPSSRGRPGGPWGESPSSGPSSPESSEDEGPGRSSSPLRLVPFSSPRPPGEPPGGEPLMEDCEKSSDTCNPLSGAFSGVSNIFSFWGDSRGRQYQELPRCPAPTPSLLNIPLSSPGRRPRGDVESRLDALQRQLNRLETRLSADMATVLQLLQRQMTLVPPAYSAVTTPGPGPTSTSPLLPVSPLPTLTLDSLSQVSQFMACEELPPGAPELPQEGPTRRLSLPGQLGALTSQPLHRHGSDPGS

**Q.** With `O=C(O)c1cc2c(nc(CN3CCC(Oc4cccc(Cc5ccc(Cl)c6ccoc56)n4)CC3)n2C[C@@H]2CCO2)s1` as the compound, how does the EC50 [1] read?
**A.** 70 nM

**Q.** Which results are given for `N#Cc1ccc(OCc2cccc(OC3CCN(Cc4nc5sc(C(=O)O)cc5n4C[C@@H]4CCO4)CC3)n2)c(F)c1`?
**A.** inhibition at 10 µM [2]: 0.9%; EC50 [1]: 0.52 nM

**Q.** Which EC50 [1] does the source give for `N#Cc1ccc(COc2cccc(OC3CCN(Cc4nc5sc(C(=O)O)cc5n4C[C@@H]4CCO4)CC3)n2)c(F)c1` here?
**A.** 9.83 nM

**Q.** Which EC50 [1] does the source give for `O=C(O)c1ccc2nc(CN3CCC(Oc4cccc(Cc5ccc6cnn(CC(F)F)c6c5F)n4)CC3)n(C[C@@H]3CCO3)c2n1` here?
**A.** 3.36 nM

**Q.** Which EC50 [1] does the source give for `O=C(O)c1cc(F)c2nc(CN3CCN(c4cccc(OCc5ccc(CC(F)F)cc5F)n4)CC3)n(C[C@@H]3CCO3)c2c1` here?
**A.** 0.086 nM

**Q.** With `O=C(O)c1cc(F)c2nc(CN3CCC(c4cccc(OCc5ccc(CC(F)(F)F)cc5F)n4)CC3)n(C[C@@H]3CCO3)c2c1` as the compound, how does the EC50 [1] read?
**A.** 0.35 nM

**Q.** For `CC1(c2ccc(COc3cccc(-c4ccc(Cc5nc6ccc(C(=O)O)nc6n5C[C@@H]5CCO5)c(F)c4)n3)c(F)c2)CC(F)(F)C1`, which EC50 [1] is on record?
**A.** 2.64 nM

**Q.** With `Cn1ncc2ccc(Cc3cccc(OC4CCN(Cc5nc6sc(C(=O)O)cc6n5C[C@@H]5CCO5)CC4)n3)cc21` as the compound, how does the EC50 [1] read?
**A.** 258 nM

**Q.** Which EC50 [1] does the source give for `O=C(O)c1ccc2nc(CN3CC=C(c4cccc(OCc5ccc(CC(F)(F)F)cc5F)n4)CC3)n(C[C@@H]3CCO3)c2n1` here?
**A.** 0.13 nM

**Q.** With `CC1(c2ccc(COc3cccc(C4=CCN(Cc5nc6ccc(C(=O)O)nc6n5C[C@@H]5CCO5)CC4)n3)c(F)c2)CC(F)(F)C1` as the compound, how does the EC50 [1] read?
**A.** 2.91 nM

**Q.** For `COc1cc(C(=O)O)cc2c1nc(CN1CCC(c3cccc(OCc4ccc(C5CC(F)(F)C5)cc4F)n3)CC1)n2C[C@@H]1CCO1`, which half-life [3] is on record?
**A.** 90 min

**Q.** What about the AUC(0-inf) [4] of the same compound?
**A.** 61.8 ng·h/mL

**Q.** And the CL/F [5]?
**A.** 1490 mL/min/kg

**Q.** And the Tmax at 24 h [6]?
**A.** 1.67 h

**Q.** And the EC50 [1]?
**A.** 0.016 nM

**Q.** What about the Cmax [7] of the same compound?
**A.** 20.2 ng/mL

**Q.** And the Fa at 24 h [8]?
**A.** 1.99%

**Q.** Which EC50 [1] does the source give for `N#Cc1ccc(Cc2cccc(OC3CCN(Cc4nc5sc(C(=O)O)cc5n4C[C@@H]4CCO4)CC3)n2)c(F)c1` here?
**A.** 9.81 nM

**Q.** For `O=C(O)c1cc2c(nc(CN3CCC(Oc4cccc(COc5ccc(Cl)cc5)n4)CC3)n2C[C@@H]2CCO2)s1`, which EC50 [1] is on record?
**A.** 0.91 nM

**Q.** With `O=C(O)c1ccc2nc(CN3CCC(Oc4cccc(Cc5ccc(C6COC6)cc5)n4)CC3)n(C[C@@H]3CCO3)c2n1` as the compound, how does the EC50 [1] read?
**A.** 55.7 nM

**Q.** With `O=C(O)c1cc2c(nc(CN3CCC(Oc4ccnc(Cc5ccc(Cl)cc5)n4)CC3)n2C[C@@H]2CCO2)s1` as the compound, how does the EC50 [1] read?
**A.** 0.79 nM

**Q.** Which EC50 [1] does the source give for `O=C(O)c1cc(F)c2nc(CN3CC=C(c4cccc(OCc5ccc(CC(F)F)cc5F)n4)CC3)n(C[C@@H]3CCO3)c2c1` here?
**A.** 0.015 nM

**Q.** Which EC50 [1] does the source give for `N#Cc1ccc(Cc2cccc(OC3CCN(Cc4nc5sc(C(=O)O)cc5n4C[C@@H]4CCO4)CC3)n2)cc1` here?
**A.** 5.47 nM

**Q.** With `O=C(O)c1cc2c(nc(CN3CCC(Oc4ccnc(COc5ccc(Cl)cc5F)n4)CC3)n2C[C@@H]2CCO2)s1` as the compound, how does the EC50 [1] read?
**A.** 0.2 nM

**Q.** Which EC50 [1] does the source give for `O=C(O)c1cc2c(nc(CN3CCC(Oc4cccc(Cc5ccccc5)n4)CC3)n2C[C@@H]2CCO2)s1` here?
**A.** 87.7 nM

**Q.** With `Cn1ccc(-c2ccc(Cc3cccc(OC4CCN(Cc5nc6sc(C(=O)O)cc6n5C[C@@H]5CCO5)CC4)n3)cc2)n1` as the compound, how does the EC50 [1] read?
**A.** 661 nM

**Q.** With `O=C(O)c1cc2c(nc(CN3CCC(Oc4cccc(Cc5ccc6cn[nH]c6c5F)n4)CC3)n2C[C@@H]2CCO2)s1` as the compound, how does the EC50 [1] read?
**A.** 176 nM

**Q.** With `O=C(O)c1cc2c(nc(CN3CCC(Oc4cccc(Cc5ccc(Cl)cc5)n4)CC3)n2C[C@@H]2CCO2)s1` as the compound, how does the EC50 [1] read?
**A.** 2.66 nM

**Q.** With `COc1ccc(Cc2cccc(OC3CCN(Cc4nc5sc(C(=O)O)cc5n4C[C@@H]4CCO4)CC3)n2)cc1` as the compound, how does the EC50 [1] read?
**A.** 20.4 nM

**Q.** For `Cn1nc(Cl)c2ccc(OCc3cccc(OC4CCN(Cc5nc6ccc(C(=O)O)nc6n5C[C@@H]5CCO5)CC4)n3)c(F)c21`, which EC50 [1] is on record?
**A.** 0.8 nM

**Q.** For `O=C(O)c1cc(F)c2nc(CN3CCC(c4cccc(OCc5ccc(CC(F)F)cc5F)n4)CC3)n(C[C@@H]3CCO3)c2c1`, which EC50 [1] is on record?
**A.** 0.096 nM

**Q.** With `N#Cc1ccc(OCc2cccc(OC3CCN(Cc4nc5ccc(C(=O)O)cc5n4C[C@@H]4CCO4)CC3)n2)c(OC(F)(F)F)c1` as the compound, how does the EC50 [1] read?
**A.** 0.46 nM

**Q.** With `O=C(O)c1cc2c(nc(CN3CCC(Oc4cccc(Cc5ccc(Cl)cc5F)n4)CC3)n2C[C@@H]2CCO2)s1` as the compound, how does the EC50 [1] read?
**A.** 3.75 nM

**Q.** For `O=C(O)c1ccc2nc(CN3CCC(Oc4cccc(Cc5ccc6cn[nH]c6c5F)n4)CC3)n(C[C@@H]3CCO3)c2n1`, which EC50 [1] is on record?
**A.** 46.8 nM

**Q.** For `CC1(c2ccc(COc3cccc(C4=CCN(Cc5nc6ccc(C(=O)O)cc6n5C[C@@H]5CCO5)CC4)n3)c(F)c2)CC(F)(F)C1`, which EC50 [1] is on record?
**A.** 6.1 nM

**Q.** For `O=C(O)c1ccc2nc(CN3CCC(Oc4cccc(COc5ccc6c(Cl)nn(CC(F)F)c6c5F)n4)CC3)n(C[C@@H]3CCO3)c2n1`, which EC50 [1] is on record?
**A.** 0.32 nM

**Q.** Which EC50 [1] does the source give for `Cn1ncc2ccc(Cc3cccc(OC4CCN(Cc5nc6ccc(C(=O)O)nc6n5C[C@@H]5CCO5)CC4)n3)c(F)c21` here?
**A.** 102 nM

**Q.** Which EC50 [1] does the source give for `O=C(O)c1ccc2nc(CN3CCC(Oc4cccc(COc5cc(Cl)c6occc6c5)n4)CC3)n(C[C@@H]3CCO3)c2n1` here?
**A.** 3.62 nM
